Assay results reported in the CheMixHub ionic liquid set.
Several values for one entry are separate records, joined by “and”; a condition that tells them apart may be missing. Equal entries are not always repeated. ± gives the uncertainty stated by the source.

Assay: xn = mol fraction of the nth substance listed

CCCCCCCC[N+](C)(CCCCCCCC)CCCCCCCC.[Cl-] + COC(=O)OC
101 kPa
Conditions	electrical conductivity	viscosity [mPa·s]
298.15 K, x1 = 0.002	0.00012 ± 7.4e-06 S/m	–
298.15 K, x1 = 0.006	0.000267 ± 1.6e-05 S/m	–
298.15 K, x1 = 0.011	0.000601 ± 3.7e-05 S/m	–
298.15 K, x1 = 0.015	0.000944 ± 6.2e-05 S/m	–
298.15 K, x2 = 0	0.0026 ± 0.0002 S/m	2391 ± 800
298.15 K, x2 = 0.67	0.015 ± 0.0009 S/m	58.07 ± 0.9
298.15 K, x2 = 0.88	0.026 ± 0.0017 S/m	5.19 ± 0.15
298.15 K, x2 = 0.98	0.00126 ± 8e-05 S/m	–
303.15 K, x1 = 0.002	0.000143 ± 9.1e-06 S/m	–
303.15 K, x1 = 0.006	0.000346 ± 2.2e-05 S/m	–
303.15 K, x1 = 0.011	0.00075 ± 4.7e-05 S/m	–
303.15 K, x1 = 0.015	0.00122 ± 7.4e-05 S/m	–
303.15 K, x2 = 0.55	0.0126 ± 0.0008 S/m	123.5 ± 9.9
303.15 K, x2 = 0.98	0.00161 ± 9.9e-05 S/m	–
308.15 K, x1 = 0.002	0.000199 ± 1.3e-05 S/m	–
308.15 K, x1 = 0.006	0.00043 ± 2.7e-05 S/m	–
308.15 K, x2 = 0.76	0.0317 ± 0.002 S/m	15.98 ± 0.38
308.15 K, x2 = 0.95	0.0116 ± 0.0007 S/m	1.21 ± 0.04
308.15 K, x2 = 0.98	0.0017 S/m and 0.00175 S/m	0.71 ± 0.02
313.15 K, x1 = 0.006	0.0005 ± 3.1e-05 S/m	–
313.15 K, x1 = 0.011	0.00105 ± 6.4e-05 S/m	–
313.15 K, x2 = 0.55	0.0201 ± 0.0013 S/m	78.5 ± 3.2
313.15 K, x2 = 0.92	0.0292 ± 0.0018 S/m	1.9 ± 0.06
313.15 K, x2 = 0.98	0.00188 S/m and 0.0019 S/m	0.67 ± 0.02
318.15 K, x1 = 0.002	0.000399 ± 2.4e-05 S/m	–
318.15 K, x1 = 0.006	0.00062 ± 4e-05 S/m	–
318.15 K, x1 = 0.011	0.00115 ± 6.9e-05 S/m	–
318.15 K, x2 = 0.98	0.00197 ± 0.00012 S/m	–

CCCCCCCCn1cc[n+](C)c1.F[B-](F)(F)F + COC(C)=O
298.15 K, 101 kPa
Conditions	viscosity [mPa·s]
x2 = 0.199	100 ± 20
x2 = 0.5512	13.82 ± 0.18
x2 = 0.801	2.29 ± 0.04
x2 = 0.9515	0.63 ± 0.01

CCCCCCCCCCCCCC[P+](CCCCCC)(CCCCCC)CCCCCC.O=S(=O)([N-]S(=O)(=O)C(F)(F)F)C(F)(F)F + COCCOCCOCCOCCOC
viscosity [mPa·s], 100 kPa
Conditions	278.15 K	283.15 K	288.15 K	293.15 K	298.15 K	303.15 K	313.15 K	323.15 K
x2 = 0.191	589 ± 30	414 ± 19	299 ± 12	221 ± 7	168 ± 5	130 ± 3	83 ± 1	60 ± 1
x2 = 0.366	281 ± 11	207 ± 7	157 ± 4	121 ± 3	96 ± 2	77 ± 1	52 ± 1	–
x2 = 0.559	111 ± 3	85 ± 1	67 ± 1	54 ± 1	–	–	–	–
x2 = 0.664	64 ± 1	51 ± 1	–	–	–	–	–	–

O=C1CCCO1 + COCCn1cc[n+](C)c1.N#C[S-]
Conditions	viscosity [mPa·s]
313.15 K, 101 kPa, x2 = 0	1.38 ± 0.28

CC(C)O + CS(=O)(=O)[O-].C[N+](C)(CCO)CCO
101 kPa, x2 = 0
Conditions	viscosity [mPa·s]
298.15 K	2.08 ± 0.13
303.15 K	1.79 ± 0.11
308.15 K	1.546 ± 0.093
313.15 K	1.343 ± 0.081
318.15 K	1.189 ± 0.072
323.15 K	1.056 ± 0.064

CCCC[n+]1ccn(C)c1.O=S(=O)([O-])C(F)(F)F + CS(C)=O
viscosity [mPa·s], 100 kPa
Conditions	x1 = 0.1006	x1 = 0.2001	x1 = 0.3054	x1 = 0.4035	x1 = 0.502	x1 = 0.6085	x1 = 0.7001	x1 = 0.8088	x1 = 0.9004	x1 = 1
298.15 K	4 ± 0.4	6.59 ± 0.66	10.1 ± 1	14.3 ± 1.4	21.8 ± 2.2	33 ± 3.3	44 ± 4.4	59.8 ± 6	72.8 ± 7.3	82.4 ± 8.4
303.15 K	3.57 ± 0.36	5.71 ± 0.57	8.68 ± 0.87	12.4 ± 1.2	18.4 ± 1.9	27.2 ± 2.7	36 ± 3.6	48.1 ± 4.8	58.3 ± 5.9	66.7 ± 6.7
308.15 K	3.18 ± 0.32	–	7.55 ± 0.76	10.5 ± 1	15.5 ± 1.5	22.7 ± 2.3	29.7 ± 3	39.6 ± 4	47.4 ± 4.8	52.9 ± 5.3
313.15 K	2.88 ± 0.29	4.46 ± 0.45	6.61 ± 0.66	9.22 ± 0.93	13.3 ± 1.3	19.2 ± 1.9	25 ± 2.5	32.8 ± 3.3	39 ± 3.9	43.7 ± 4.4
318.15 K	2.61 ± 0.26	3.98 ± 0.4	5.83 ± 0.59	8.08 ± 0.81	11.5 ± 1.2	16.4 ± 1.6	21.2 ± 2.1	27.5 ± 2.8	32.6 ± 3.3	36.3 ± 3.7
323.15 K	2.38 ± 0.24	3.59 ± 0.36	5.2 ± 0.52	7.15 ± 0.72	10.1 ± 1	14.2 ± 1.4	18.1 ± 1.8	23.4 ± 2.4	27.5 ± 2.8	30.6 ± 3.1

CCOP(=O)([O-])OCC.CC[n+]1ccn(C)c1 + CS(C)=O
298.1 K, 100 kPa
Conditions	electrical conductivity
x1 = 0.025	0.31 S/m and 0.4 S/m
x1 = 0.407	0.4 ± 0.02 S/m
x1 = 0.718	0.16 ± 0.01 S/m
x1 = 1	0.09 ± 0.01 S/m
